According to PubChem BioAssay (NCI):
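Where inhibition never reached the appropriate level, the endpoint shown equals the highest concentration tested. Otherwise, values were interpolated linearly from a five-concentration, 48-hour dose response in 96-well plates. At the TGI there is no net growth.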

What was measured:
Assay in all cases: NCI tumour cell line growth inhibition, 48 h
786-0 renal = system: 786-0 renal
A498 renal = system: A498 renal
A549 NSCLC = system: A549 NSCLC
ACHN renal = system: ACHN renal
CAKI-1 renal = system: CAKI-1 renal
CCRF-CEM leukemia = system: CCRF-CEM leukemia
COLO 205 colon = system: COLO 205 colon
DMS 114 small cell lung = system: DMS 114 small cell lung
DMS 273 small cell lung = system: DMS 273 small cell lung
EKVX NSCLC = system: EKVX NSCLC
HCC-2998 colon = system: HCC-2998 colon
HCT-116 colon = system: HCT-116 colon
HCT-15 colon = system: HCT-15 colon
HL-60(TB) leukemia = system: HL-60(TB) leukemia
HOP-18 NSCLC = system: HOP-18 NSCLC
HOP-62 NSCLC = system: HOP-62 NSCLC
HOP-92 NSCLC = system: HOP-92 NSCLC
HT29 colon = system: HT29 colon
IGROV1 ovarian = system: IGROV1 ovarian
K-562 leukemia = system: K-562 leukemia
KM12 colon = system: KM12 colon
KM20L2 colon = system: KM20L2 colon
LOX IMVI melanoma = system: LOX IMVI melanoma
LXFL 529 NSCLC = system: LXFL 529 NSCLC
M14 melanoma = system: M14 melanoma
M19-MEL melanoma = system: M19-MEL melanoma
MALME-3M melanoma = system: MALME-3M melanoma
MOLT-4 leukemia = system: MOLT-4 leukemia
NCI-H226 lung = system: NCI-H226 lung
NCI-H23 lung = system: NCI-H23 lung
NCI-H460 lung = system: NCI-H460 lung
NCI-H522 lung = system: NCI-H522 lung
OVCAR-3 ovarian = system: OVCAR-3 ovarian
OVCAR-4 ovarian = system: OVCAR-4 ovarian
OVCAR-5 ovarian = system: OVCAR-5 ovarian
OVCAR-8 ovarian = system: OVCAR-8 ovarian
RPMI-8226 leukemia = system: RPMI-8226 leukemia
RXF 393 renal = system: RXF 393 renal
RXF-631 renal = system: RXF-631 renal
SF-268 CNS = system: SF-268 CNS
SF-295 CNS = system: SF-295 CNS
SF-539 CNS = system: SF-539 CNS
SK-MEL-2 melanoma = system: SK-MEL-2 melanoma
SK-MEL-28 melanoma = system: SK-MEL-28 melanoma
SK-MEL-5 melanoma = system: SK-MEL-5 melanoma
SK-OV-3 ovarian = system: SK-OV-3 ovarian
SN12C renal = system: SN12C renal
SNB-19 CNS = system: SNB-19 CNS
SNB-75 CNS = system: SNB-75 CNS
SNB-78 CNS = system: SNB-78 CNS
SW-620 colon = system: SW-620 colon
TK-10 renal = system: TK-10 renal
U251 CNS = system: U251 CNS
UACC-257 melanoma = system: UACC-257 melanoma
UACC-62 melanoma = system: UACC-62 melanoma
UO-31 renal = system: UO-31 renal
DLD-1 colon = system: DLD-1 colon
SR leukemia = system: SR leukemia
XF 498 CNS = system: XF 498 CNS

Cc1ccc(Sc2ccccc2N)cc1
TGI (786-0 renal): > 100 µM | TGI (A498 renal): > 100 µM | TGI (A549 NSCLC): > 100 µM | TGI (ACHN renal): > 100 µM | TGI (CAKI-1 renal): 67 µM | TGI (CCRF-CEM leukemia): 70 µM | TGI (COLO 205 colon): > 100 µM | TGI (DMS 114 small cell lung): > 100 µM | TGI (DMS 273 small cell lung): > 100 µM | TGI (EKVX NSCLC): > 100 µM | TGI (HCC-2998 colon): > 100 µM | TGI (HCT-116 colon): > 100 µM | TGI (HCT-15 colon): > 100 µM | TGI (HL-60(TB) leukemia): 49.6 µM | TGI (HOP-18 NSCLC): > 100 µM | TGI (HOP-62 NSCLC): 29.6 µM | TGI (HOP-92 NSCLC): 54.7 µM | TGI (HT29 colon): > 100 µM | TGI (IGROV1 ovarian): > 100 µM | TGI (K-562 leukemia): > 100 µM | TGI (KM12 colon): > 100 µM | TGI (KM20L2 colon): > 100 µM | TGI (LOX IMVI melanoma): > 100 µM | TGI (LXFL 529 NSCLC): 32.9 µM | TGI (M14 melanoma): > 100 µM | TGI (M19-MEL melanoma): > 100 µM | TGI (MALME-3M melanoma): > 100 µM | TGI (MOLT-4 leukemia): 58.4 µM | TGI (NCI-H226 lung): 66.4 µM | TGI (NCI-H23 lung): 93.3 µM | TGI (NCI-H460 lung): > 100 µM | TGI (NCI-H522 lung): 38.1 µM | TGI (OVCAR-3 ovarian): > 100 µM | TGI (OVCAR-4 ovarian): > 100 µM | TGI (OVCAR-5 ovarian): > 100 µM | TGI (OVCAR-8 ovarian): > 100 µM | TGI (RPMI-8226 leukemia): 53.4 µM | TGI (RXF 393 renal): 47.2 µM | TGI (RXF-631 renal): > 100 µM | TGI (SF-268 CNS): > 100 µM | TGI (SF-295 CNS): > 100 µM | TGI (SF-539 CNS): 87.9 µM | TGI (SK-MEL-2 melanoma): > 100 µM | TGI (SK-MEL-28 melanoma): > 100 µM | TGI (SK-MEL-5 melanoma): 45.5 µM | TGI (SK-OV-3 ovarian): > 100 µM | TGI (SN12C renal): > 100 µM | TGI (SNB-19 CNS): > 100 µM | TGI (SNB-75 CNS): > 100 µM | TGI (SNB-78 CNS): > 100 µM | TGI (SW-620 colon): > 100 µM | TGI (TK-10 renal): > 100 µM | TGI (U251 CNS): > 100 µM | TGI (UACC-257 melanoma): > 100 µM | TGI (UACC-62 melanoma): > 100 µM | TGI (UO-31 renal): 31.5 µM

NC(CCCCNCc1ccccc1)C(=O)O (centres undefined)
TGI (786-0 renal): > 100 µM | TGI (A498 renal): > 100 µM | TGI (A549 NSCLC): > 100 µM | TGI (ACHN renal): > 100 µM | TGI (CAKI-1 renal): > 100 µM | TGI (CCRF-CEM leukemia): > 100 µM | TGI (COLO 205 colon): > 100 µM | TGI (DLD-1 colon): > 100 µM | TGI (DMS 114 small cell lung): > 100 µM | TGI (DMS 273 small cell lung): > 100 µM | TGI (EKVX NSCLC): > 100 µM | TGI (HCC-2998 colon): > 100 µM | TGI (HCT-116 colon): > 100 µM | TGI (HCT-15 colon): > 100 µM | TGI (HL-60(TB) leukemia): > 100 µM | TGI (HOP-18 NSCLC): > 100 µM | TGI (HOP-62 NSCLC): > 100 µM | TGI (HOP-92 NSCLC): > 100 µM | TGI (HT29 colon): > 100 µM | TGI (IGROV1 ovarian): > 100 µM | TGI (K-562 leukemia): > 100 µM | TGI (KM12 colon): > 100 µM | TGI (KM20L2 colon): > 100 µM | TGI (LOX IMVI melanoma): > 100 µM | TGI (LXFL 529 NSCLC): > 100 µM | TGI (M14 melanoma): > 100 µM | TGI (M19-MEL melanoma): > 100 µM | TGI (MALME-3M melanoma): > 100 µM | TGI (MOLT-4 leukemia): > 100 µM | TGI (NCI-H226 lung): > 100 µM | TGI (NCI-H23 lung): > 100 µM | TGI (NCI-H460 lung): > 100 µM | TGI (NCI-H522 lung): > 100 µM | TGI (OVCAR-3 ovarian): > 100 µM | TGI (OVCAR-4 ovarian): > 100 µM | TGI (OVCAR-5 ovarian): > 100 µM | TGI (OVCAR-8 ovarian): > 100 µM | TGI (RPMI-8226 leukemia): > 100 µM | TGI (RXF-631 renal): > 100 µM | TGI (SF-268 CNS): > 100 µM | TGI (SF-295 CNS): > 100 µM | TGI (SF-539 CNS): > 100 µM | TGI (SK-MEL-2 melanoma): > 100 µM | TGI (SK-MEL-28 melanoma): > 100 µM | TGI (SK-MEL-5 melanoma): > 100 µM | TGI (SK-OV-3 ovarian): > 100 µM | TGI (SN12C renal): > 100 µM | TGI (SNB-19 CNS): > 100 µM | TGI (SNB-75 CNS): > 100 µM | TGI (SNB-78 CNS): > 100 µM | TGI (SW-620 colon): > 100 µM | TGI (TK-10 renal): > 100 µM | TGI (U251 CNS): > 100 µM | TGI (UACC-257 melanoma): > 100 µM | TGI (UACC-62 melanoma): > 100 µM | TGI (UO-31 renal): > 100 µM

O=C(CC1(O)C(=O)Nc2c(Cl)cc(Cl)cc21)c1ccc(F)cc1 (centres undefined)
TGI (786-0 renal): 38.9 µM | TGI (A549 NSCLC): > 100 µM | TGI (ACHN renal): > 100 µM | TGI (CAKI-1 renal): > 100 µM | TGI (COLO 205 colon): 43 µM | TGI (DLD-1 colon): > 100 µM | TGI (DMS 114 small cell lung): 58.9 µM | TGI (DMS 273 small cell lung): > 100 µM | TGI (EKVX NSCLC): > 100 µM | TGI (HCC-2998 colon): > 100 µM | TGI (HCT-116 colon): > 100 µM | TGI (HCT-15 colon): > 100 µM | TGI (HOP-18 NSCLC): > 100 µM | TGI (HOP-62 NSCLC): > 100 µM | TGI (HOP-92 NSCLC): > 100 µM | TGI (HT29 colon): 70.1 µM | TGI (IGROV1 ovarian): 67.6 µM | TGI (KM12 colon): > 100 µM | TGI (KM20L2 colon): > 100 µM | TGI (LOX IMVI melanoma): 66.5 µM | TGI (LXFL 529 NSCLC): > 100 µM | TGI (M14 melanoma): > 100 µM | TGI (M19-MEL melanoma): 34 µM | TGI (MALME-3M melanoma): > 100 µM | TGI (NCI-H226 lung): > 100 µM | TGI (NCI-H23 lung): 70.9 µM | TGI (NCI-H460 lung): > 100 µM | TGI (OVCAR-3 ovarian): 68.6 µM | TGI (OVCAR-4 ovarian): 52.6 µM | TGI (OVCAR-5 ovarian): > 100 µM | TGI (OVCAR-8 ovarian): 47.6 µM | TGI (RPMI-8226 leukemia): 61.4 µM | TGI (RXF 393 renal): 88.3 µM | TGI (RXF-631 renal): > 100 µM | TGI (SF-268 CNS): > 100 µM | TGI (SF-295 CNS): > 100 µM | TGI (SF-539 CNS): 57.4 µM | TGI (SK-MEL-2 melanoma): > 100 µM | TGI (SK-MEL-28 melanoma): > 100 µM | TGI (SK-OV-3 ovarian): > 100 µM | TGI (SN12C renal): > 100 µM | TGI (SNB-19 CNS): > 100 µM | TGI (SNB-75 CNS): 63.8 µM | TGI (SNB-78 CNS): > 100 µM | TGI (SR leukemia): 57 µM | TGI (SW-620 colon): > 100 µM | TGI (TK-10 renal): > 100 µM | TGI (U251 CNS): 97.1 µM | TGI (UACC-257 melanoma): 65 µM | TGI (UACC-62 melanoma): > 100 µM | TGI (UO-31 renal): > 100 µM | TGI (XF 498 CNS): 39.9 µM
